Structures can show the parent of a compound that is named as a salt.
target: T1, BTK (Homo sapiens, UniProt Q06187); experiment: In vitro BTK kinase assay: BTK-POLYGAT-LS assay; assay type: biochemical; details: 10 uM ATP, read-out: IC50 (10 uMATP)
T1 construct: purchased Upstate 14-552
T1 sequence (Q06187 whole entry): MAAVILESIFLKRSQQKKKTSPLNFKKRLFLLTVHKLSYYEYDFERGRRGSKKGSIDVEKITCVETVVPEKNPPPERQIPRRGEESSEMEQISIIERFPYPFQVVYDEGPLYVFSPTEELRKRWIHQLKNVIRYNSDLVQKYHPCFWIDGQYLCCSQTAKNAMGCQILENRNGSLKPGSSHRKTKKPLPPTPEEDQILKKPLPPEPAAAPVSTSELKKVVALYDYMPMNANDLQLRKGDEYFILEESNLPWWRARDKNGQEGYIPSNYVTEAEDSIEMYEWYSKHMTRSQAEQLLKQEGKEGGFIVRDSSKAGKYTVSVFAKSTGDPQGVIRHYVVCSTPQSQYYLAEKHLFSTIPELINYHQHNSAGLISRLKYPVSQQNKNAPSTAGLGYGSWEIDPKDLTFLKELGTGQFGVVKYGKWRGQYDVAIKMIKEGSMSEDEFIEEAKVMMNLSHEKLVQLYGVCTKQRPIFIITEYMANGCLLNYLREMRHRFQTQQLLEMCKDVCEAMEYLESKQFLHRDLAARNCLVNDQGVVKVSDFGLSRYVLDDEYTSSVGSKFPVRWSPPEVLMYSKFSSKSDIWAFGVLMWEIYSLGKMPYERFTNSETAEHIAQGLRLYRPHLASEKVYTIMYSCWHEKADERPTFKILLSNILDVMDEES

IC50 [nM]	Compound
10 to 99	CC(C)(C)c1ncc(C(=O)NC(CO)c2ccc(-c3ncnc4cc(C5=CCS(=O)(=O)CC5)[nH]c34)cc2)s1 (stereo not drawn) [Example I-29, 2-(tert-butyl)-N-(1-(4-(6-(1,1-dioxido-3,6-dihydro-2H-thiopyran-4-yl)-5H-pyrrolo[3,2-d]pyrimidin-4-yl)phenyl)-2-hydroxyethyl)thiazole-5-carboxamide]
< 10	Cc1cc(-c2ncnc3nc(N4CCC(N(C)C)C4)[nH]c23)ccc1CNC(=O)c1cnc(C(C)(C)C)s1 (stereo not drawn) [Example I-50, 2-(tert-butyl)-N-(4-(8-(3-(dimethylamino)pyrrolidin-1-yl)-7H-purin-6-yl)-2-methylbenzyl)thiazole-5-carboxamide]
10 to 99	CC(C)(C)c1ccc(C(=O)NC2CCCc3cc(-c4ncnc5[nH]ncc45)ccc32)cc1 (stereo not drawn) [Example I-88, N-(6-(1H-pyrazolo[3,4-d]pyrimidin-4-yl)-1,2,3,4-tetrahydronaphthalen-1-yl)-4-(tert-butyl)benzamide]
< 10	Cc1cc(-c2ncnc3[nH]c(-c4cnn5c4CNCC5)cc23)ccc1CNC(=O)c1cnc(C(C)(C)C)s1 [Example I-76, 2-(tert-butyl)-N-(2-methyl-4-(6-(4,5,6,7-tetrahydropyrazolo[1,5-a]pyrazin-3-yl)-7H-pyrrolo[2,3-d]pyrimidin-4-yl)benzyl)thiazole-5-carboxamide hydrochloride]

More lines, now with the values behind:

Compound	IC50 [nM]
CC(C)(C)c1ccc(C(=O)NCc2ccc(-c3ncnc4[nH]ccc34)cc2C(F)(F)F)cc1 [Example I-3, N-(4-(7H-pyrrolo[2,3-d]pyrimidin-4-yl)-2-(trifluoromethyl)benzyl)-4-(tert-butyl)benzamide]	10 to 99
CC1(C)CCc2nc(C(=O)NC3CCCc4cc(-c5ncnc6[nH]ncc56)ccc43)sc2C1 (stereo not drawn) [Example I-136, N-(6-(1H-pyrazolo[3,4-d]pyrimidin-4-yl)-1,2,3,4-tetrahydronaphthalen-1-yl)-6,6-dimethyl-4,5,6,7-tetrahydrobenzo[d]thiazole-2-carboxamide]	10 to 99
CC(C)(C)c1nnc(C(=O)NC2CCCc3cc(-c4ncnc5[nH]ncc45)ccc32)s1 (stereo not drawn) [Example I-103, N-(6-(1H-pyrazolo[3,4-d]pyrimidin-4-yl)-1,2,3,4-tetrahydronaphthalen-1-yl)-5-(tert-butyl)-1,3,4-thiadiazole-2-carboxamide]	100 to 999
Cc1cc(-c2ncnc3[nH]ncc23)ccc1C(C)NC(=O)c1nc2c(s1)CCCC2 (stereo not drawn) [Example I-127, N-(1-(2-methyl-4-(1H-pyrazolo[3,4-d]pyrimidin-4-yl)phenyl)ethyl)-4,5,6,7-tetrahydrobenzo[d]thiazole-2-carboxamide]	10 to 99
O=C(NC1CCCc2cc(-c3ncnc4[nH]ncc34)ccc21)c1nc2c(s1)CCCC2 (stereo not drawn) [Example I-137, N-(6-(1H-pyrazolo[3,4-d]pyrimidin-4-yl)-1,2,3,4-tetrahydronaphthalen-1-yl)-4,5,6,7-tetrahydrobenzo[d]thiazole-2-carboxamide]	10 to 99
O=C(NC1CCCc2cc(-c3ncnc4[nH]ncc34)ccc21)c1cc2c(s1)CCCC2 (stereo not drawn) [Example I-107, N-(6-(1H-pyrazolo[3,4-d]pyrimidin-4-yl)-1,2,3,4-tetrahydronaphthalen-1-yl)-4,5,6,7-tetrahydrobenzo[b]thiophene-2-carboxamide]	< 10
Cn1cc(-c2cc3c(-c4ccc5c(c4)CCCCC5NC(=O)N4CCC(C(C)(C)C)C4)ncnc3[nH]2)cn1 (stereo not drawn) [Example I-162, 3-(tert-butyl)-N-(2-(6-(1-methyl-1H-pyrazol-4-yl)-7H-pyrrolo[2,3-d]pyrimidin-4-yl)-6,7,8,9-tetrahydro-5H-benzo[7]annulen-5-yl)pyrrolidine-1-carboxamide]	< 10
CC(C)(C)C1CCC(C(=O)NC2CCCc3cc(-c4ncnc5[nH]ncc45)ccc32)CC1 (stereo not drawn) [Example I-104, N-(6-(1H-pyrazolo[3,4-d]pyrimidin-4-yl)-1,2,3,4-tetrahydronaphthalen-1-yl)-4-(tert-butyl)cyclohexanecarboxamide]	100 to 999

From patent publication US10280169B2, “Biaryl bruton's tyrosine kinase inhibitors” (BIOGEN MA INC., priority 2013, dated 2019)
